According to ChEMBL document CHEMBL4507258 (2021):

What was measured:
[1] = biological target: 5-hydroxytryptamine receptor 1A (Homo sapiens, UniProt P08908); test: GPCRScan assay: inhibition of 5-HT1A; set-up: radioligand conc. used [nm] 0.5 – 1.0, parental cells stable CHO
[2] = biological target: T1, Kappa-type opioid receptor (Homo sapiens, UniProt P41145); test: GPCRScan assay: inhibition of KOR; set-up: radioligand conc. used [nm] 0.6 – 1.2, parental cells stable HEK
[3] = biological target: Beta-2 adrenergic receptor (Homo sapiens) (UniProt P07550); settings: Compound concentration 10.0 uM
Chain of Beta-2 adrenergic receptor (Homo sapiens) (P07550 whole entry, looked up): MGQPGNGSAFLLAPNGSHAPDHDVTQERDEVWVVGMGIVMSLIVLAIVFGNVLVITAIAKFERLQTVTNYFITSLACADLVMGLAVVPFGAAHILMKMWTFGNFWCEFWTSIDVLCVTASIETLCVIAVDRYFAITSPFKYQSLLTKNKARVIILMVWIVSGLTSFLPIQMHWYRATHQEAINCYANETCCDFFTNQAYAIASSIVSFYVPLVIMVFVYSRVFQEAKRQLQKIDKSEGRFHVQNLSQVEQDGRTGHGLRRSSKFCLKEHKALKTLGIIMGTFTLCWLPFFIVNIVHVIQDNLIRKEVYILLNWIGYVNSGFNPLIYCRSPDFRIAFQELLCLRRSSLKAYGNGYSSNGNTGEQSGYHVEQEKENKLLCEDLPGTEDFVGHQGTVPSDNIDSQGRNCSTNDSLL

[4] = biological target: Mu-type opioid receptor (Homo sapiens, UniProt P35372); test: GPCRScan assay: inhibition of MOR; set-up: radioligand conc. used [nm] 1.0 – 2.0, parental cells stable HEK
Chain of Mu-type opioid receptor (P35372 whole entry): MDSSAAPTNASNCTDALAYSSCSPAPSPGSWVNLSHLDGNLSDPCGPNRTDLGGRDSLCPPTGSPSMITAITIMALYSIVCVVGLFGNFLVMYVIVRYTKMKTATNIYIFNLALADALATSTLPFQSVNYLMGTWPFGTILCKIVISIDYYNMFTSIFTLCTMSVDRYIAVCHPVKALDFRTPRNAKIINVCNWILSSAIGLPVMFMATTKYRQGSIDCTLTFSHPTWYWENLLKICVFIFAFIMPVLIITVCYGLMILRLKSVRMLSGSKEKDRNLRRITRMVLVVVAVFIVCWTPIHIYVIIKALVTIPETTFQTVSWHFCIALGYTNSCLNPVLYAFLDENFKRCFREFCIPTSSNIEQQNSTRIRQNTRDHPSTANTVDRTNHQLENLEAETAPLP

[5] = biological target: Sigma non-opioid intracellular receptor 1 (Homo sapiens, UniProt Q99720); test: GPCRScan assay: inhibition of Sigma 1; set-up: radioligand conc. used [nm] 4.0 – 5.0, parental cells HEKT
[6] = biological target: Alpha-2C adrenergic receptor (Homo sapiens) (UniProt P18825); settings: Compound concentration 10.0 uM
Chain of Alpha-2C adrenergic receptor (Homo sapiens) (P18825 whole entry): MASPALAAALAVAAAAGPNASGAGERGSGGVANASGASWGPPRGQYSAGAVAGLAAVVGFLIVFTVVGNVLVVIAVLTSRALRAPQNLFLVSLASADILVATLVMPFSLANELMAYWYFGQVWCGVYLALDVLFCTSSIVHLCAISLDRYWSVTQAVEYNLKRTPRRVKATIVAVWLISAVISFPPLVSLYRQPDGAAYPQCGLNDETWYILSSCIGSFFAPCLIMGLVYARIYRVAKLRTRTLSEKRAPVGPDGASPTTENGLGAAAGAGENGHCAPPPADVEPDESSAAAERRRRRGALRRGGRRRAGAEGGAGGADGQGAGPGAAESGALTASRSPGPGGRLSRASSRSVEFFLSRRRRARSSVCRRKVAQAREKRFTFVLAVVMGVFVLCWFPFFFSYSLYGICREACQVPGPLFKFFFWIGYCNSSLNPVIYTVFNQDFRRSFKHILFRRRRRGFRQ

[7] = biological target: 5-hydroxytryptamine receptor 2C (Homo sapiens) (UniProt P28335); settings: Compound concentration 10.0 uM
Chain of 5-hydroxytryptamine receptor 2C (Homo sapiens) (P28335 whole entry): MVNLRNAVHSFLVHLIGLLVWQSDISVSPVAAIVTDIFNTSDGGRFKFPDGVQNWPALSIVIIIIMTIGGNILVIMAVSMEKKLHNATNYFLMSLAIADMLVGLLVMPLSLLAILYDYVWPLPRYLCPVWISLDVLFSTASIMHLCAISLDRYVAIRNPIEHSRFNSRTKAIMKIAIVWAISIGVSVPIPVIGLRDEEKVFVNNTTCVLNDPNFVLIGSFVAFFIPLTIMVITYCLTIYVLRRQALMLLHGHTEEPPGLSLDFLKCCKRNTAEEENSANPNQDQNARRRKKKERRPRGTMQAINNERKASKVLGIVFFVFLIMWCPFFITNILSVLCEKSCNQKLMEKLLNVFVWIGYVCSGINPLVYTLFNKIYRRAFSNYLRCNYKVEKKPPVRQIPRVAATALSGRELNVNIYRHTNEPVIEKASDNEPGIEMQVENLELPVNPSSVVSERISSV

[8] = biological target: Beta-1 adrenergic receptor (Homo sapiens) (UniProt P08588); test: beta1-adrenoceptor (h) CEREP ligand profiling; settings: Compound concentration 10.0 uM
[9] = biological target: T2, Histamine H1 receptor (Homo sapiens, UniProt P35367); test: Histamine H1 receptor (central) CEREP ligand profiling; settings: Compound concentration 10.0 uM
T2 sequence (P35367 whole entry): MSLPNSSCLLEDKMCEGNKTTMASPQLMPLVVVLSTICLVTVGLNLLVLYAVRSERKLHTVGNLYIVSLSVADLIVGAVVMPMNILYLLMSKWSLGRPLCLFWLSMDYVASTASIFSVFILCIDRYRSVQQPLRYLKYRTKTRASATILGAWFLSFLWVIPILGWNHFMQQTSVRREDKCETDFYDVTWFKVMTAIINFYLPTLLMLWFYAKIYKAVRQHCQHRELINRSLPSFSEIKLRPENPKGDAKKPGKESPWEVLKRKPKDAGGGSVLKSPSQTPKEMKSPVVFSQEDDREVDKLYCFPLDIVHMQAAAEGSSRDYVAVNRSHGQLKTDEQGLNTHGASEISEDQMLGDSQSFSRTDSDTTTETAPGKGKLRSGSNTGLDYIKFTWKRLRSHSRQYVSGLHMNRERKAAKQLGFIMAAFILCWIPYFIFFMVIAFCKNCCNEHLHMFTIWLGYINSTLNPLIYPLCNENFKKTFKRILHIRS

[10] = biological target: Adrenergic receptor alpha-2 (Homo sapiens) (UniProt P08913+P18825+P18089); test: alpha2-adrenoceptor (non-selective) CEREP ligand profiling; assay type: protein assay; settings: Compound concentration 10.0 uM
[11] = biological target: B2 bradykinin receptor (Homo sapiens) (UniProt P30411); test: Bradykinin B2 receptor (h) CEREP ligand profiling; settings: Compound concentration 10.0 uM
[12] = biological target: T2, Histamine H1 receptor; test: GPCRScan assay: inhibition of H1; set-up: radioligand conc. used [nm] 0.6 – 2.0, parental cells stable HEK
[13] = biological target: T1, Kappa-type opioid receptor; test: kappa-Opioid receptor (h) CEREP ligand profiling; settings: Compound concentration 10.0 uM
[14] = biological target: Interleukin-1 beta (Homo sapiens) (UniProt P01584); test: Interleukin-1beta CEREP ligand profiling; settings: Compound concentration 10.0 uM
[15] = biological target: Neurotensin receptor (Homo sapiens) (UniProt O95665+P30989); test: Neurotensin receptor (h) CEREP ligand profiling; assay type: protein assay; settings: Compound concentration 10.0 uM
[16] = biological target: 5-hydroxytryptamine receptor 2C (Homo sapiens) (UniProt P28335); test: 5-Hydroxytryptamine2C (h) CEREP ligand profiling; settings: Compound concentration 10.0 uM
[17] = biological target: Serine/threonine-protein kinase SIK1 (Homo sapiens, UniProt P57059); test: Inhibition of SIK1 at compound concentration of 10.0 uM using the ScanMax (DiscoverX)
[18] = biological target: Calcitonin gene-related peptide type 1 receptor (Homo sapiens) (UniProt Q16602); test: Calcitonin gene-related peptide CEREP ligand profiling; settings: Compound concentration 10.0 uM
[19] = biological target: Adenosine receptor A2a (Homo sapiens) (UniProt P29274); test: Adenosine A 2A receptor (h) CEREP ligand profiling; settings: Compound concentration 10.0 uM
Chain of Adenosine receptor A2a (Homo sapiens) (P29274 whole entry): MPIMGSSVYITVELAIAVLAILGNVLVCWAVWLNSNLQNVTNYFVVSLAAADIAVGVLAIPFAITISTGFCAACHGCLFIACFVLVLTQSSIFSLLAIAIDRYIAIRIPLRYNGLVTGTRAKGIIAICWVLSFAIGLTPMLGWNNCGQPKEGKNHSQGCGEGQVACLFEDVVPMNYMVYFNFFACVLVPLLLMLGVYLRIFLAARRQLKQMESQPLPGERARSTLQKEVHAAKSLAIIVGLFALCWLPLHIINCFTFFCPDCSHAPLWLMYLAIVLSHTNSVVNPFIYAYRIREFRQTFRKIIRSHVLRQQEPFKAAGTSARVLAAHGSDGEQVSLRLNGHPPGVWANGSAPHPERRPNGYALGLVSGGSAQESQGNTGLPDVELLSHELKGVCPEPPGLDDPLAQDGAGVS

[20] = biological target: D(2) dopamine receptor (Homo sapiens) (UniProt P14416); test: Dopamine D2 receptor (h) CEREP ligand profiling; settings: Compound concentration 10.0 uM
[21] = biological target: Thromboxane A2 receptor (Homo sapiens) (UniProt P21731); test: Thromboxane A2/ prostaglandin H2 receptors CEREP ligand profiling; settings: Compound concentration 10.0 uM
[22] = biological target: Sodium-dependent dopamine transporter (Homo sapiens) (UniProt Q01959); test: Dopamine uptake (h) CEREP ligand profiling; settings: Compound concentration 10.0 uM
Chain of Sodium-dependent dopamine transporter (Homo sapiens) (Q01959 whole entry): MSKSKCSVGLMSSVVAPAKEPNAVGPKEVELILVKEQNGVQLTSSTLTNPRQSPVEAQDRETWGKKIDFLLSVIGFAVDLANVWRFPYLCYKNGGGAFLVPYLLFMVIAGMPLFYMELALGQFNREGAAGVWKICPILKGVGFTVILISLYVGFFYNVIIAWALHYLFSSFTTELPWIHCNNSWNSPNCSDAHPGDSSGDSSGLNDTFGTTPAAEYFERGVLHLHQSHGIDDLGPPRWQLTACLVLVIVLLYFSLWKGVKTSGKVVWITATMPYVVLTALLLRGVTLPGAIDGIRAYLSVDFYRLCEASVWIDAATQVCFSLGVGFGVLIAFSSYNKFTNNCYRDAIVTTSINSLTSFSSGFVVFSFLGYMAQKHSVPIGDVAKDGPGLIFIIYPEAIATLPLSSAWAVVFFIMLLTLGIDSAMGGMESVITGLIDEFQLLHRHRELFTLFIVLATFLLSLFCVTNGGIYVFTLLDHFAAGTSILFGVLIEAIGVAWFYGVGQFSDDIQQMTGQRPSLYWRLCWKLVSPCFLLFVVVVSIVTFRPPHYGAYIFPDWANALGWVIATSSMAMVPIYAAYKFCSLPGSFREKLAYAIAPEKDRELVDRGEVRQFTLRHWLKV

[23] = biological target: Voltage-gated (volt-dependent) potassium channel (Homo sapiens, UniProt O43525+O43526+O95259+P16389+P17658+P22001+P22459+P22460+P48547+P51787+P56696+Q03721+Q09470+Q12809+Q14003+Q14721+Q16322+Q6PIU1+Q8NCM2+Q8TAE7+Q8TDN1+Q8TDN2+Q92953+Q96KK3+Q96L42+Q96PR1+Q96RP8+Q9BQ31+Q9H252+Q9H3M0+Q9NR82+Q9NS40+Q9NSA2+Q9NZV8+Q9UIX4+Q9UJ96+Q9UK17+Q9ULD8+Q9ULS6+Q9UQ05); test: K+ channel (volt-dependent) CEREP ligand profiling; assay type: protein assay; settings: compound concentration 10 uM
[24] = biological target: Beta-2 adrenergic receptor (Homo sapiens) (UniProt P07550); test: beta2-adrenoceptor (h) CEREP ligand profiling; settings: Compound concentration 10.0 uM
[25] = biological target: 5-hydroxytryptamine receptor 6 (Homo sapiens) (UniProt P50406); test: 5-Hydroxytryptamine6 (h) CEREP ligand profiling; settings: Compound concentration 10.0 uM
[26] = biological target: Glutamate NMDA receptor (Rattus norvegicus) (UniProt P35439+Q00959+Q00960+Q00961+Q62645+Q8VHN2+Q9R1M7); test: PCP receptor CEREP ligand profiling; assay type: protein-complex assay; settings: Compound concentration 10.0 uM
[27] = biological target: Cannabinoid receptor 2 (Homo sapiens) (UniProt P34972); test: Cannabinoid CB2 receptor (h) CEREP ligand profiling; settings: Compound concentration 10.0 uM
[28] = biological target: Calcium/calmodulin-dependent protein kinase type 1B (Homo sapiens, UniProt Q6P2M8); test: Inhibition of PNCK at compound concentration of 10.0 uM using the ScanMax (DiscoverX)
[29] = biological target: Bombesin receptor (Homo sapiens) (UniProt P28336+P32247+P30550); test: Bombesin receptor CEREP ligand profiling; assay type: protein assay; settings: Compound concentration 10.0 uM
[30] = biological target: Gastrin/cholecystokinin type B receptor (Homo sapiens) (UniProt P32239); test: CholecystokininB receptor (h) CEREP ligand profiling; settings: Compound concentration 10.0 uM
[31] = biological target: Histamine H2 receptor (Homo sapiens) (UniProt P25021); test: Histamine H2 receptor CEREP ligand profiling; settings: Compound concentration 10.0 uM
[32] = biological target: D(3) dopamine receptor (Homo sapiens) (UniProt P35462); test: Dopamine D3 receptor (h) CEREP ligand profiling; settings: Compound concentration 10.0 uM
Chain of D(3) dopamine receptor (Homo sapiens) (P35462 whole entry): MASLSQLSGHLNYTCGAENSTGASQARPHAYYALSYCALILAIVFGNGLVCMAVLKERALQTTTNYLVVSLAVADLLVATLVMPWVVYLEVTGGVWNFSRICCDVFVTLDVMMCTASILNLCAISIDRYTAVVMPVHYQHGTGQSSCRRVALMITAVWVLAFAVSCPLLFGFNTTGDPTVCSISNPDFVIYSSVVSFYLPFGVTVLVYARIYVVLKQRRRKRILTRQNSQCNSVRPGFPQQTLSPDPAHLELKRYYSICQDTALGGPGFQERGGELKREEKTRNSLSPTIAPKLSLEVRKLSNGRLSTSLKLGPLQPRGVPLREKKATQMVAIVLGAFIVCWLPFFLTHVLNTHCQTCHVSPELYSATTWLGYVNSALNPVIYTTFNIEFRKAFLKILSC

[33] = biological target: T3, Muscarinic acetylcholine receptor M2 (Homo sapiens) (UniProt P08172); test: Muscarinic M2 receptors (h) CEREP ligand profiling; settings: Compound concentration 10.0 uM
T3 sequence (whole entry): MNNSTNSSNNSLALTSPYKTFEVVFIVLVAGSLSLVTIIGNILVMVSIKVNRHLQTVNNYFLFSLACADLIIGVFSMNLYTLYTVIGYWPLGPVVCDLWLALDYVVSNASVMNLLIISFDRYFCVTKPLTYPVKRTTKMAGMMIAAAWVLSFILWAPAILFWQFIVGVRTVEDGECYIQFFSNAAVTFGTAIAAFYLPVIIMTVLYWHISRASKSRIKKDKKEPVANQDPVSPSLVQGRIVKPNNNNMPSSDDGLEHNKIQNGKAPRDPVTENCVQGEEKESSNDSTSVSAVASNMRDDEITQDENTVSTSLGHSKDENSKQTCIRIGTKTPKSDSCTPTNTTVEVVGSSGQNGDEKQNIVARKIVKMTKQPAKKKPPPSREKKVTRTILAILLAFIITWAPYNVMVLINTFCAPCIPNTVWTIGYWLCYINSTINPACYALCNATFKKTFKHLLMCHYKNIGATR

[34] = biological target: Death-associated protein kinase 3 (Homo sapiens, UniProt O43293); test: Inhibition of DAPK3 at compound concentration of 10.0 uM using the ScanMax (DiscoverX)
[35] = biological target: Vasopressin V2 receptor (Homo sapiens) (UniProt P30518); test: Vasopresine V2 receptor CEREP ligand profiling; settings: Compound concentration 10.0 uM
Chain of Vasopressin V2 receptor (Homo sapiens) (P30518 whole entry): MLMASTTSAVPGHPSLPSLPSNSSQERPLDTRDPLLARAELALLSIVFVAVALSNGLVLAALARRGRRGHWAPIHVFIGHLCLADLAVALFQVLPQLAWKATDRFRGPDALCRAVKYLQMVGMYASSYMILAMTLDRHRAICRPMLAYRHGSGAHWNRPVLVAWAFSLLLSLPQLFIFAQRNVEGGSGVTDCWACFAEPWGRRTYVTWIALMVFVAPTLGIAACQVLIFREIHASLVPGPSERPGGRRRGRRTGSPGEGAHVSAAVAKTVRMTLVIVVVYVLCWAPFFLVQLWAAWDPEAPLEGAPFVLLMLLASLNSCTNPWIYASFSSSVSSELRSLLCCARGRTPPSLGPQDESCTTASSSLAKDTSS

[36] = biological target: Delta-type opioid receptor (Homo sapiens) (UniProt P41143); test: delta-Opioid receptor (h) CEREP ligand profiling; settings: Compound concentration 10.0 uM
[37] = biological target: Cholecystokinin receptor type A (Homo sapiens) (UniProt P32238); test: CholecystokininA receptor (h) CEREP ligand profiling; settings: Compound concentration 10.0 uM
Chain of Cholecystokinin receptor type A (Homo sapiens) (P32238 whole entry): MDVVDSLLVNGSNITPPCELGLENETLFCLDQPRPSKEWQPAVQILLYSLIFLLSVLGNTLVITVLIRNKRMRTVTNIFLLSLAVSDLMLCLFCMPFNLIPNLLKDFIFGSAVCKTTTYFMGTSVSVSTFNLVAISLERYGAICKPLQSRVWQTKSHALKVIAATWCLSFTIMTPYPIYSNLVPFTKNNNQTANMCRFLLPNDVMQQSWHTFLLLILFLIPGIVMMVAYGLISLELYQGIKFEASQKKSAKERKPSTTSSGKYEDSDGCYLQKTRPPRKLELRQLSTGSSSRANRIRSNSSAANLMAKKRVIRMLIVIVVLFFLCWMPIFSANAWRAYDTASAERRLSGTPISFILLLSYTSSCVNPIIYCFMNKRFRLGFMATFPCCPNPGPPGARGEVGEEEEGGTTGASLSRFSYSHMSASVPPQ

T1 sequence (P41145 whole entry): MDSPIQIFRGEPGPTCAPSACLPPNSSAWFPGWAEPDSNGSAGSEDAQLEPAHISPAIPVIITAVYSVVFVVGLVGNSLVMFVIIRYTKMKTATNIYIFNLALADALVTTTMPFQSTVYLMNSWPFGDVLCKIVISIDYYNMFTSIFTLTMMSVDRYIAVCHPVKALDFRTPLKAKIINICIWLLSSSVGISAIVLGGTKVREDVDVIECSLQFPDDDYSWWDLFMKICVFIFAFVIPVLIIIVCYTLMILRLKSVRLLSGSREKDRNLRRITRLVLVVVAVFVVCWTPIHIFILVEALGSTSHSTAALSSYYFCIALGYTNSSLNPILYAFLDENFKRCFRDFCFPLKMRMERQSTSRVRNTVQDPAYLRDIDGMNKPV

## CCCCN(CCCC)C(=O)CN1C[C@@H](c2cc(OC)c3c(c2)OCO3)[C@H](C(=O)O)[C@H]1CC(C)(C)CCC [A-545]
[1]
  Ki: 189 nM
[2]; read-out: Ki
  Ki: 2780 nM
[2]; read-out: pKi (converted)
  Ki: 2820 nM
[3]
  inhibition: -6.31%
[4]
  Ki: 2780 nM
[5]
  Ki: 298 nM
[6]
  inhibition: 56.1%
[7]
  inhibition: 15.7%

## CCCCN(CCCC)C(=O)CN1C[C@H](c2cc(OC)c3c(c2)OCO3)[C@@H](C(=O)O)[C@@H]1CC(C)(C)CCC [ABT-546]
[8]
  inhibition: < 10%
[9]
  inhibition: < 10%
[10]
  inhibition: 18%
[11]
  inhibition: < 10%
[12]
  Ki: 10000 nM
[13]
  inhibition: 28%
[14]
  inhibition: < 10%
[15]
  inhibition: < 10%
[16]
  inhibition: < 10%
[17]
  Kd: > 10000 nM (not active)
[18]
  inhibition: < 10%
[19]
  inhibition: < 10%
[20]
  inhibition: < 10%
[21]
  inhibition: 16%
[22]
  inhibition: < 10%
[23]
  inhibition at 10 µM: < 10% (not active)
[24]
  inhibition: < 10%
[25]
  inhibition: < 10%
[26]
  inhibition: < 10%
[27]
  inhibition: 11%
[28]
  Kd: > 10000 nM (not active)
[29]
  inhibition: < 10%
[30]
  inhibition: < 10%
[31]
  inhibition: < 10%
[32]
  inhibition: < 10%
[33]
  inhibition: < 10%
[34]
  Kd: > 10000 nM (not active)
[35]
  inhibition: < 10%
[36]
  inhibition: 62%
[37]
  inhibition: < 10%
